Entries after “also recorded” stand apart in the source; their conditions may differ.
Key:
astrocytes [1] = assay: Lysosomal zinc (FluoZin-3 with LysoTracker); assay type: cell-based; conditions: 10 μM AMX for 30 minutes
hippocampus of TBI rats [2] = assay: Controlled cortical impact TBI: NeuN immunohistochemistry; assay type: in vivo, rat; conditions: CA1, CA3, GCL, hilus, 2 weeks post-TBI, vs TBI-vehicle
Experimental: (§1) This study used male Sprague-Dawley rats weighing 300-350 g and aged 8 weeks, obtained from DBL Co. (Chungcheongbuk-do, Republic of Korea). The rats were housed in a controlled environment with a temperature of 20 ± 2 °C, a relative humidity of 55 ± 5%, and a 12-hour light/dark cycle. They were provided ad libitum access to food and water. To minimize stress associated with transportation, animals underwent a one-week acclimatization period before the start of the experiments. All experimental procedures were conducted in compliance with the guidelines of the National Institutes of Health for the care and use of laboratory animals and were approved by the Hallym University Institutional Animal Care and Use Committee (protocol # Hallym 2022-23, approved on July 15, 2022). This manuscript follows the principles outlined in the Animal research: reporting in vivo experiments (ARRIVE) guidelines.
(§2) A controlled cortical impact (CCI) model was used to induce TBI in rats. Animals were anesthetized with 1-1.5% isoflurane in a 30:70 oxygen-to-nitrous oxide mixture and securely positioned in a stereotaxic frame. A 3 mm craniotomy was performed using a portable drill at a site 2.8 mm lateral to the midline and 3.0 mm posterior to Bregma. […]

[3] = system: activated microglia and astrocytes (Iba1, GFAP); conditions: post-seizure AMX treatment; cited from earlier work
astrocytes [4] = assay: Lysosomal pH detection (DND-189 fluorescence); assay type: cell-based; conditions: 10 μM AMX with 100 nM BafA1
[5] = system: cultured cortical astrocytes; assay: p-PKA substrate Western blot in astrocytes; assay type: cell-based; conditions: 10 µM AMX for 1 and 4 hours
hippocampus of TBI rats [6] = assay: Controlled cortical impact TBI: hippocampal cAMP ELISA; assay type: in vivo; conditions: rat, 3 hours post-TBI, AMX 100 mg/kg i.p.
Experimental: as §1, §2

PKA = PKA colorimetric activity assay (test tubes); assay type: biochemical; conditions: 0.1-10 µM
Experimental: PKA activity was assessed using a microplate-based kinase activity assay. Each well contained reaction buffer, a purified PKA enzyme, and test samples, followed by adding 10 μL of adenosine triphosphate (ATP) solution to initiate the reaction. Plates were incubated at 30°C for 90 minutes, before being washed four times with wash buffer to remove unbound components. Next, 25 μL each of phospho-PKA substrate antibody and horseradish peroxidase (HRP)-conjugated secondary antibody (donkey anti-rabbit IgG) were added to each well. The plates were incubated at room temperature (RT) for 60 minutes under continuous shaking to ensure uniform binding. To detect the phosphorylated substrate, 100 μL of tetramethylbenzidine (TMB) substrate was added to each well, followed by a 30-minute incubation at RT. The reaction was terminated by adding stop solution, and the absorbance was measured at 450 nm by using a microplate reader to quantify PKA activity.

[7] = system: ipsilateral hippocampus of TBI rats; assay: Controlled cortical impact TBI: IgG extravasation (BBB integrity); assay type: in vivo, rat; conditions: 24 hours and 2 weeks post-TBI
Experimental: as §1, §2

hippocampus of TBI rats [8] = assay: Controlled cortical impact TBI: Fluoro-Jade B neuronal death; assay type: in vivo, rat; conditions: ipsilateral CA1, CA3, GCL, hilus, 24 hours post-TBI, vs TBI-vehicle
Experimental: as §1
A controlled cortical impact (CCI) model was used to induce TBI in rats. […]
Neuronal death was assessed 24 hours after TBI via Fluoro-Jade B (FJB) staining, a method designed for detecting degenerating neurons. […] FJB-positive cells were quantified in hippocampal subregions, including CA1 (Cornu Ammonis 1), CA3 (Cornu Ammonis 3), GCL (granule cell layer), and the hilus.

CC(C)c1ccc2oc3nc(N)c(C(=O)O)cc3c(=O)c2c1 [AMX, amlexanox]
lysosomal zinc (FluoZin-3 fluorescence) (astrocytes [1]): significant increase in zinc fluorescence within lysosomes | NeuN-positive cell counts (hippocampus of TBI rats [2]): higher NeuN-positive cell counts | activated microglia and astrocytes (Iba1, GFAP) [3]: markedly decreased activated microglia and astrocytes | lysosomal pH (DND-189 fluorescence), reversal of BafA1 effect (astrocytes [4]): effectively reversed BafA1-induced alkalization | p-PKA levels [5]: increased p-PKA levels | hippocampal cAMP levels (ELISA) (hippocampus of TBI rats [6]): restored cAMP levels to values comparable to sham controls | PKA activity in test tubes (PKA): activates PKA | IgG extravasation (BBB integrity) [7]: reduces this leakage; also recorded: significantly reduced IgG extravasation | number of FJB-positive degenerating neurons (hippocampus of TBI rats [8]): significantly reduced the number of FJB-positive degenerating neurons
